{
  "source": "patent USRE50724E1",
  "about": "“4-membered ring carboxamides used as nematicides” (SYNGENTA CROP PROTECTION AG, priority 2013, dated 2026)",
  "data": [
    {"system": "Heterodera schachtii", "experiment": "Heterodera schachtii (sugar beet cyst nematode), nematicide, contact activity: juvenile paralysis in 16-well assay plates", "assay_type": "in vivo", "settings": "200 ppm, approx. 500 juveniles per well, 24 hours incubation at 25° C. in darkness, read-out: nematode immobilization compared to the untreated control", "protocol": "(§1) Heterodera schachtii (Sugar Beet Cyst Nematode), Nematicide, Contact Activity\n(§2) The tested application rate of each compound was 200 ppm. All solutions were brought to a concentration of 400 ppm, respectively, as they were subsequently diluted by adding the equivalent amount of water containing juvenile nematodes. After preparation of the suspensions, 1 ml of each suspension and concentration was transferred to 16-well assay plates with a total of three replicates per treatment. Approximately 500 juveniles of Heterodera schachtii were added in 1 ml of water to each well. Nematodes in water served as controls. The plates were placed in a dark box and stored at room temperature. Nematode paralysis was determined after 24 hours incubation at 25° C. in darkness.", "units": {"pest or weed control at 200 ppm": "%"}, "values": [
      {"smiles": "O=C(N[C@H]1CC[C@H]1c1ccc(Cl)cc1Cl)c1nccnc1Cl", "note": "[Compound 61.3, 3-chloro-N-[(1S,2S)-2-(2,4-dichlorophenyl)cyclobutyl]pyrazine-2-carboxamide]", "pest or weed control at 200 ppm": "> 75"},
      {"smiles": "O=C(N[C@H]1CC[C@H]1c1ccc(Cl)cc1Cl)c1ncccc1C(F)(F)F", "note": "[Compound 61.4, N-[(1S,2S)-2-(2,4-dichlorophenyl)cyclobutyl]-3-(trifluoromethyl)pyridine-2-carboxamide]", "pest or weed control at 200 ppm": "> 75"},
      {"smiles": "COc1cccnc1C(=O)N[C@H]1CC[C@H]1c1ccc(Cl)cc1", "note": "[Compound 61.11, N-[(1S,2S)-2-(4-chlorophenyl)cyclobutyl]-3-methoxypyridine-2-carboxamide]", "pest or weed control at 200 ppm": "> 75"},
      {"smiles": "O=C(N[C@H]1CC[C@H]1c1ccc(Cl)cc1)c1sccc1Br", "note": "[Compound 61.14, 3-bromo-N-[(1S,2S)-2-(4-chlorophenyl)cyclobutyl]thiophene-2-carboxamide]", "pest or weed control at 200 ppm": "> 75"},
      {"smiles": "O=C(N[C@H]1CC[C@H]1c1ccc(Cl)cc1)c1ncccc1Br", "note": "[Compound 61.15, 3-bromo-N-[(1S,2S)-2-(4-chlorophenyl)cyclobutyl]pyridine-2-carboxamide]", "pest or weed control at 200 ppm": "> 75"},
      {"smiles": "O=C(N[C@H]1CC[C@H]1c1ccc(Cl)cc1)c1ccccc1Br", "note": "[Compound 61.21, 2-bromo-N-[(1S,2S)-2-(4-chlorophenyl)cyclobutyl]benzamide]", "pest or weed control at 200 ppm": "> 75"},
      {"smiles": "O=C(N[C@H]1CC[C@H]1c1ccc(Cl)cc1)c1c(F)cccc1Cl", "note": "[Compound 61.22, 2-chloro-N-[(1S,2S)-2-(4-chlorophenyl)cyclobutyl]-6-fluorobenzamide]", "pest or weed control at 200 ppm": "> 75"},
      {"smiles": "Cc1ncccc1C(=O)N[C@H]1CC[C@H]1c1ccc(Cl)cc1", "note": "[Compound 61.23, N-[(1S,2S)-2-(4-chlorophenyl)cyclobutyl]-2-methylpyridine-3-carboxamide]", "pest or weed control at 200 ppm": "> 75"},
      {"smiles": "COc1cccc(F)c1C(=O)N[C@H]1CC[C@H]1c1ccc(Cl)cc1", "note": "[Compound 61.24, N-[(1S,2S)-2-(4-chlorophenyl)cyclobutyl]-2-fluoro-6-methoxybenzamide]", "pest or weed control at 200 ppm": "> 75"},
      {"smiles": "Cc1cccc(F)c1C(=O)N[C@H]1CC[C@H]1c1ccc(Cl)cc1", "note": "[Compound 61.25, N-[(1S,2S)-2-(4-chlorophenyl)cyclobutyl]-2-fluoro-6-methylbenzamide]", "pest or weed control at 200 ppm": "> 75"},
      {"smiles": "Cc1nccnc1C(=O)N[C@H]1CC[C@H]1c1ccc(Cl)cc1", "note": "[Compound 61.26, N-[(1S,2S)-2-(4-chlorophenyl)cyclobutyl]-3-methylpyrazine-2-carboxamide]", "pest or weed control at 200 ppm": "> 75"},
      {"smiles": "O=C(N[C@H]1CC[C@H]1c1ccc(Cl)cc1)c1sccc1Cl", "note": "[Compound 61.36, 3-chloro-N-[(1S,2S)-2-(4-chlorophenyl)cyclobutyl]thiophene-2-carboxamide]", "pest or weed control at 200 ppm": "> 75"},
      {"smiles": "O=C(N[C@H]1CC[C@H]1c1ccc(Cl)cc1)c1ncccc1Cl", "note": "[Compound 61.46, 3-chloro-N-[(1S,2S)-2-(4-chlorophenyl)cyclobutyl]pyridine-2-carboxamide]", "pest or weed control at 200 ppm": "> 75"},
      {"smiles": "O=C(N[C@H]1CC[C@H]1c1ccc(Cl)cc1)c1ncccn1", "note": "[Compound 61.47, N-[(1S,2S)-2-(4-chlorophenyl)cyclobutyl]pyrimidine-2-carboxamide]", "pest or weed control at 200 ppm": "> 75"},
      {"smiles": "O=C(N[C@H]1CC[C@H]1c1ccc(Cl)cc1)c1ccsc1Cl", "note": "[Compound 61.52, 2-chloro-N-[(1S,2S)-2-(4-chlorophenyl)cyclobutyl]thiophene-3-carboxamide]", "pest or weed control at 200 ppm": "> 75"},
      {"smiles": "O=C(N[C@H]1CC[C@H]1c1ccc(Cl)cc1)c1ccsc1I", "note": "[Compound 61.53, N-[(1S,2S)-2-(4-chlorophenyl)cyclobutyl]-2-iodothiophene-3-carboxamide]", "pest or weed control at 200 ppm": "> 75"},
      {"smiles": "O=C(N[C@H]1CC[C@H]1c1ccc(Cl)cc1)c1ccsc1C(F)(F)F", "note": "[Compound 61.54, N-[(1S,2S)-2-(4-chlorophenyl)cyclobutyl]-2-(trifluoromethyl)thiophene-3-carboxamide]", "pest or weed control at 200 ppm": "> 75"},
      {"smiles": "COc1cccnc1C(=O)N[C@H]1CC[C@H]1c1ccc(Cl)cc1Cl", "note": "[Compound 61.56, N-[(1S,2S)-2-(2,4-dichlorophenyl)cyclobutyl]-3-methoxypyridine-2-carboxamide]", "pest or weed control at 200 ppm": "> 75"},
      {"smiles": "COc1ccccc1C(=O)N[C@H]1CC[C@H]1c1ccc(Cl)cc1Cl", "note": "[Compound 61.58, N-[(1S,2S)-2-(2,4-dichlorophenyl)cyclobutyl]-2-methoxybenzamide]", "pest or weed control at 200 ppm": "> 75"},
      {"smiles": "O=C(N[C@H]1CC[C@H]1c1ccc(Cl)cc1Cl)c1sccc1Br", "note": "[Compound 61.59, 3-bromo-N-[(1S,2S)-2-(2,4-dichlorophenyl)cyclobutyl]thiophene-2-carboxamide]", "pest or weed control at 200 ppm": "> 75"},
      {"smiles": "Cc1ccccc1C(=O)N[C@H]1CC[C@H]1c1ccc(Cl)cc1Cl", "note": "[Compound 61.62, N-[(1S,2S)-2-(2,4-dichlorophenyl)cyclobutyl]-2-methylbenzamide]", "pest or weed control at 200 ppm": "> 75"},
      {"smiles": "O=C(N[C@H]1CC[C@H]1c1ccc(Cl)cc1Cl)c1ccccc1F", "note": "[Compound 61.65, N-[(1S,2S)-2-(2,4-dichlorophenyl)cyclobutyl]-2-fluorobenzamide]", "pest or weed control at 200 ppm": "> 75"},
      {"smiles": "Cc1nccnc1C(=O)N[C@H]1CC[C@H]1c1ccc(Cl)cc1Cl", "note": "[Compound 61.70, N-[(1S,2S)-2-(2,4-dichlorophenyl)cyclobutyl]-3-methylpyrazine-2-carboxamide]", "pest or weed control at 200 ppm": "> 75"},
      {"smiles": "O=C(N[C@H]1CC[C@H]1c1ccc(Cl)cc1Cl)c1ccc[nH]1", "note": "[Compound 61.72, N-[(1S,2S)-2-(2,4-dichlorophenyl)cyclobutyl]-1H-pyrrole-2-carboxamide]", "pest or weed control at 200 ppm": "> 75"},
      {"smiles": "Cc1ncoc1C(=O)N[C@H]1CC[C@H]1c1ccc(Cl)cc1Cl", "note": "[Compound 61.73, N-[(1S,2S)-2-(2,4-dichlorophenyl)cyclobutyl]-4-methyl-1,3-oxazole-5-carboxamide]", "pest or weed control at 200 ppm": "> 75"},
      {"smiles": "Cc1nscc1C(=O)N[C@H]1CC[C@H]1c1ccc(Cl)cc1Cl", "note": "[Compound 61.74, N-[(1S,2S)-2-(2,4-dichlorophenyl)cyclobutyl]-3-methyl-1,2-thiazole-4-carboxamide]", "pest or weed control at 200 ppm": "> 75"},
      {"smiles": "O=C(N[C@H]1CC[C@H]1c1ccc(Cl)cc1Cl)c1sccc1Cl", "note": "[Compound 61.79, 3-chloro-N-[(1S,2S)-2-(2,4-dichlorophenyl)cyclobutyl]thiophene-2-carboxamide]", "pest or weed control at 200 ppm": "> 75"},
      {"smiles": "O=C(N[C@H]1CC[C@H]1c1ccc(Cl)cc1Cl)c1ccccc1OC(F)(F)F", "note": "[Compound 61.81, N-[(1S,2S)-2-(2,4-dichlorophenyl)cyclobutyl]-2-(trifluoromethoxy)benzamide]", "pest or weed control at 200 ppm": "> 75"},
      {"smiles": "Cc1oncc1C(=O)N[C@H]1CC[C@H]1c1ccc(Cl)cc1Cl", "note": "[Compound 61.83, N-[(1S,2S)-2-(2,4-dichlorophenyl)cyclobutyl]-5-methyl-1,2-oxazole-4-carboxamide]", "pest or weed control at 200 ppm": "> 75"},
      {"smiles": "O=C(N[C@H]1CC[C@H]1c1ccc(Cl)cc1Cl)c1c(F)cccc1C(F)(F)F", "note": "[Compound 61.84, N-[(1S,2S)-2-(2,4-dichlorophenyl)cyclobutyl]-2-fluoro-6-(trifluoromethyl)benzamide]", "pest or weed control at 200 ppm": "> 75"},
      {"smiles": "O=C(N[C@H]1CC[C@H]1c1ccc(Cl)cc1Cl)C1=C(C(F)(F)F)OCCS1", "note": "[Compound 61.85, N-[(1S,2S)-2-(2,4-dichlorophenyl)cyclobutyl]-6-(trifluoromethyl)-2,3-dihydro-1,4-oxathiine-5-carboxamide]", "pest or weed control at 200 ppm": "> 75"},
      {"smiles": "CC1=C(C(=O)N[C@H]2CC[C@H]2c2ccc(Cl)cc2Cl)SCCO1", "note": "[Compound 61.86, N-[(1S,2S)-2-(2,4-dichlorophenyl)cyclobutyl]-6-methyl-2,3-dihydro-1,4-oxathiine-5-carboxamide]", "pest or weed control at 200 ppm": "> 75"},
      {"smiles": "O=C(N[C@H]1CC[C@H]1c1ccc(Cl)cc1Cl)c1ccsc1Br", "note": "[Compound 61.87, 2-bromo-N-[(1S,2S)-2-(2,4-dichlorophenyl)cyclobutyl]thiophene-3-carboxamide]", "pest or weed control at 200 ppm": "> 75"},
      {"smiles": "O=C(N[C@H]1CC[C@H]1c1ccc(Cl)cc1Cl)c1cscn1", "note": "[Compound 61.88, N-[(1S,2S)-2-(2,4-dichlorophenyl)cyclobutyl]-1,3-thiazole-4-carboxamide]", "pest or weed control at 200 ppm": "> 75"},
      {"smiles": "O=C(N[C@H]1CC[C@H]1c1ccc(Cl)cc1Cl)c1ccccc1Cl", "note": "[Compound 61.89, 2-chloro-N-[(1S,2S)-2-(2,4-dichlorophenyl)cyclobutyl]benzamide]", "pest or weed control at 200 ppm": "> 75"},
      {"smiles": "O=C(N[C@H]1CC[C@H]1c1ccc(Cl)cc1Cl)c1ncccn1", "note": "[Compound 61.90, N-[(1S,2S)-2-(2,4-dichlorophenyl)cyclobutyl]pyrimidine-2-carboxamide]", "pest or weed control at 200 ppm": "> 75"},
      {"smiles": "N#Cc1ccccc1C(=O)N[C@H]1CC[C@H]1c1ccc(Cl)cc1Cl", "note": "[Compound 61.91, 2-cyano-N-[(1S,2S)-2-(2,4-dichlorophenyl)cyclobutyl]benzamide]", "pest or weed control at 200 ppm": "> 75"},
      {"smiles": "Cc1cccnc1C(=O)N[C@H]1CC[C@H]1c1ccc(Cl)cc1Cl", "note": "[Compound 61.92, N-[(1S,2S)-2-(2,4-dichlorophenyl)cyclobutyl]-3-methylpyridine-2-carboxamide]", "pest or weed control at 200 ppm": "> 75"},
      {"smiles": "O=C(N[C@H]1CC[C@H]1c1ccc(Cl)cc1Cl)c1ccsc1I", "note": "[Compound 61.96, N-[(1S,2S)-2-(2,4-dichlorophenyl)cyclobutyl]-2-iodothiophene-3-carboxamide]", "pest or weed control at 200 ppm": "> 75"}
    ]},
    {"system": "Heterodera schachtii", "experiment": "Heterodera schachtii (sugar beet cyst nematode), nematicide, contact activity: juvenile paralysis in 16-well assay plates", "assay_type": "in vivo", "settings": "24 h, read-out: nematode immobilization compared to the untreated control", "protocol": "as §1, §2", "units": {"pest or weed control at 200 ppm": "%"}, "values": [
      {"smiles": "Cc1nc(C(F)(F)F)c(C(=O)N[C@H]2CC[C@H]2c2ccc(Cl)cc2Cl)s1", "note": "[Compound 61.93, N-[(1S,2S)-2-(2,4-dichlorophenyl)cyclobutyl]-2-methyl-4-(trifluoromethyl)-1,3-thiazole-5-carboxamide]", "pest or weed control at 200 ppm": "> 75"}
    ]}
  ]
}
